The record followed here is patent US10227347B2, “Purinyl-N-hydroxyl pyrimidine formamide derivative, preparation methods and uses thereof” (Guizhou Bailing Group Pharmaceutical CO., LTD., priority 2015, dated 2019).

In experiment [1] the test system is SUDHL-4 cells (B-cell lymphoma). Briefly: Proliferation inhibition, SUDHL-4 (cck-8). The experiment is classed as cell-based. The settings on record: Homo sapiens, SU-DHL-4; 96 h incubation. The text has this: Calculating the value of IC50 as per the formula: Y=background data+(top data−background data)/(1+10^((Log IC50−X)*rate of curve)). Where, Y refers to the inhibition ratio (%) and X refers to the compound concentration.

Another experiment addresses T1, PI3Kα (Homo sapiens, UniProt P42336).
T1 construct: purchased Invitrogen PV4788
The experiment in a line: PI3Kα activity inhibition (Kinase-Glo). It counts as biochemical. The essentials: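 Kinase-Glo luminescence read-out of remaining ATP after PI3K reaction with PIP2 and ATP substrates in 50 mM HEPES pH 7.5, 3 mM MgCl2, 1 mM EGTA, 100 mM NaCl, 0.03% CHAPS, 2 mM DTT. Incubated at ambient temperature, 1 h for PI3Kα, 2 h for PI3Kδ. IC50 from four-parameter fit of % inhibition versus concentration.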
For orientation: In Kinase-Glo more light means more ATP remaining.

In experiment [2] the test system is hct116 cells (colon cancer). Briefly: Cell proliferation inhibition, hct116 (MTT). It counts as cell-based. The settings on record: Homo sapiens, HCT-116. The essentials:
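Cells seeded at 2000-3000/well; adherent lines dosed after attachment, then 96 h incubation with compound. Viability read by MTT for solid-tumour lines (HCT116, A2780s) and CCK-8 for MV4-11; IC50 from four-parameter logistic fit of inhibition ratio versus concentration.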

The next experiment concerns the target T2, HDAC10 (Homo sapiens, UniProt Q969S8).
T2 construct: purchased BPS Bioscience 50060
T2 sequence (Q969S8 1-669): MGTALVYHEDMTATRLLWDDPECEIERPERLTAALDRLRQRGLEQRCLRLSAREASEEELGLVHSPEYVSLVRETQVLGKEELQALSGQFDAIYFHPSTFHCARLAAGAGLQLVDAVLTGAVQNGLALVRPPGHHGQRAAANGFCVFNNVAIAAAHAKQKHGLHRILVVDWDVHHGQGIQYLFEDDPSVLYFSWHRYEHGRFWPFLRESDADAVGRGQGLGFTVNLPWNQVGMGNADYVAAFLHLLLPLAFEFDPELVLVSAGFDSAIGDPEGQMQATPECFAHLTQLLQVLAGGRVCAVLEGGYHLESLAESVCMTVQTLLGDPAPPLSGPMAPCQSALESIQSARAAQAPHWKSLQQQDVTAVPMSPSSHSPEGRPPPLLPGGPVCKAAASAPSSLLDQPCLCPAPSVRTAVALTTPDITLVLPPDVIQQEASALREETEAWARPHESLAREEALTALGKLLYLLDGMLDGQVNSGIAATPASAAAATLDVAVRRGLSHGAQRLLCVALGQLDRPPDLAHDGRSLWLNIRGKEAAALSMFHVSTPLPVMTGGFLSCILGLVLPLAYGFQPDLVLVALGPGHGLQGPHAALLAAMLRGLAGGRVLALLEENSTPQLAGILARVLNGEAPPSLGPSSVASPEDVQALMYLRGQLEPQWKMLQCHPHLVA
The experiment in a line: HDAC10 enzyme inhibition (Lys-Ac-AMC). The experiment is classed as biochemical. The note with it: Table 4, graded. The protocol:
Determining the inhibition capability of HDAC through the substrate method of fluorophore coupled acetylized peptide fragment (Lys-Ac-AMC). HDAC2-11 proteins of subtypes are purchased from BPS Bioscience Company with the Art. […] The reaction buffer system is a modified Tris buffer (pH7.0). The small molecule compounds are prepared and dissolved with 100% DMSO. […] Adding the compound into the reaction wells of the 384 well plate at the designed concentration, then adding 15 μL HDAC enzyme solution into the reaction wells (adding 15 μL blank buffer into the control well 0) for incubation under ambient temperature for 15 min; then adding 10 μL substrate solution to start reaction.
Analyzing the result data with the software GraphPad Prism and calculating the value of IC50 as per the formula: Y=background data+(top data−background data)/(1+10^((Log IC50−X)*rate of curve)). Where, Y refers to the inhibition ratio (%) and X refers to the compound concentration.

In another experiment the target is T3, PI3Kβ (Homo sapiens, UniProt P42338).
T3 construct: purchased Millipore 14-603-K
The experiment in a line: PI3Kβ activity inhibition (ADP-Glo). The experiment is classed as biochemical. The procedure, abridged:
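Kinase activity measured by ADP-Glo luminescence with PIP2 and ATP substrates in 50 mM HEPES pH 7.5, 3 mM MgCl2, 1 mM EGTA, 100 mM NaCl, 0.03% CHAPS, 2 mM DTT. Reaction ran 1 h at ambient temperature. IC50 was fitted from inhibition ratio versus compound concentration.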
(In general: ADP-Glo turns the ADP formed in a reaction into a luminescent signal.)

The mark [3] stands for this setting: Table 1, graded, read-out: PI3Kα IC50.
Where [4] appears, read: Table 4, graded, read-out: PI3Kα IC50.
Setting [5] is: 96 h incubation, read-out: Proliferation IC50, Colon cancer hct116.

SMILES strings stand for the structures. Read-outs that look alike come from different tables or passages of the source. Some results are limits rather than exact numbers.

T1 sequence (P42336 whole entry, species assumed): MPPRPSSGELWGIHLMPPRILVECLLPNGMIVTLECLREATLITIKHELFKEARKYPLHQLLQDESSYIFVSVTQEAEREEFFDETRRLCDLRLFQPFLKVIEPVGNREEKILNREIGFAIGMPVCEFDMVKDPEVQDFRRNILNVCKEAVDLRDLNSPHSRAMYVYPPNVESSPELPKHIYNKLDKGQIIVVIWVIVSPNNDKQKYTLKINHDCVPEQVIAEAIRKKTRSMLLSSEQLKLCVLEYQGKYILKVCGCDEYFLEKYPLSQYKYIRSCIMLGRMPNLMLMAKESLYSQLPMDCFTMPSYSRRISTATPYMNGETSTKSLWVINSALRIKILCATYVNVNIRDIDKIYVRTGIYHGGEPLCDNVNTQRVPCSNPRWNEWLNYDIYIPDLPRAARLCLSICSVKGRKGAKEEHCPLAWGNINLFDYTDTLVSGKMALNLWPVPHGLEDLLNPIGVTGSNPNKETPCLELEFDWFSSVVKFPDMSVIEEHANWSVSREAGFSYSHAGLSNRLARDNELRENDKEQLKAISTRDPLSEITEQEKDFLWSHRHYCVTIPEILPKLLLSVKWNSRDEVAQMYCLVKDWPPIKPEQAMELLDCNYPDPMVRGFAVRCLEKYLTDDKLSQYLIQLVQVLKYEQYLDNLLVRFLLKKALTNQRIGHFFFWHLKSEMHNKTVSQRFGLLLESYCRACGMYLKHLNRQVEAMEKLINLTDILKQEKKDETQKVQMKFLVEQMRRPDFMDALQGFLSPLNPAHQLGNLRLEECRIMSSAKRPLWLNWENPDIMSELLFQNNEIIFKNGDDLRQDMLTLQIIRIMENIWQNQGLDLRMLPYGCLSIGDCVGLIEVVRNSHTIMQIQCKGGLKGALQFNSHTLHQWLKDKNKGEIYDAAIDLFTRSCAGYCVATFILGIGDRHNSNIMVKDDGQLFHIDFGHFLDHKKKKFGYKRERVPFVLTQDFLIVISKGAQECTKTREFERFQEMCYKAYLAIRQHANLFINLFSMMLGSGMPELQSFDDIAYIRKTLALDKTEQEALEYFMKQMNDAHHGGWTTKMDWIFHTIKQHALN
T1 sequence (P27986 whole entry partner, species assumed): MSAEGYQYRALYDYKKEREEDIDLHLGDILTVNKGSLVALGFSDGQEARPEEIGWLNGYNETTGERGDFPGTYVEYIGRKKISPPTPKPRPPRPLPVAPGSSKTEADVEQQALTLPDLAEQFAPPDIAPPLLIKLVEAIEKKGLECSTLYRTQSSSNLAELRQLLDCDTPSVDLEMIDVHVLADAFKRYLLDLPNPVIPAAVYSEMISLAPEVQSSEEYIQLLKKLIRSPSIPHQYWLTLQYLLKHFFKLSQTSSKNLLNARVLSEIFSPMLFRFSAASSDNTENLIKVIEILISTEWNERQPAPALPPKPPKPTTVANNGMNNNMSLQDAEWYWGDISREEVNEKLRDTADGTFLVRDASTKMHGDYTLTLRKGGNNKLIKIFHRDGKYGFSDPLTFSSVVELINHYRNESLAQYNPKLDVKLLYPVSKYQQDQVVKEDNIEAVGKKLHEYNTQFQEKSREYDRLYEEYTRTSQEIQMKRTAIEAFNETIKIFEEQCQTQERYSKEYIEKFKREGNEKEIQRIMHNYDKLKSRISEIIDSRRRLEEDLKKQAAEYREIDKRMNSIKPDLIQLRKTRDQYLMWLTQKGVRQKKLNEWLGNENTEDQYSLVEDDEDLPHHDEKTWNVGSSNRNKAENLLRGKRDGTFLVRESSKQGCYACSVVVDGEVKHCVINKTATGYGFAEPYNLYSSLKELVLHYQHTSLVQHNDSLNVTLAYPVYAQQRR
T3 sequence (P42338 whole entry, species assumed): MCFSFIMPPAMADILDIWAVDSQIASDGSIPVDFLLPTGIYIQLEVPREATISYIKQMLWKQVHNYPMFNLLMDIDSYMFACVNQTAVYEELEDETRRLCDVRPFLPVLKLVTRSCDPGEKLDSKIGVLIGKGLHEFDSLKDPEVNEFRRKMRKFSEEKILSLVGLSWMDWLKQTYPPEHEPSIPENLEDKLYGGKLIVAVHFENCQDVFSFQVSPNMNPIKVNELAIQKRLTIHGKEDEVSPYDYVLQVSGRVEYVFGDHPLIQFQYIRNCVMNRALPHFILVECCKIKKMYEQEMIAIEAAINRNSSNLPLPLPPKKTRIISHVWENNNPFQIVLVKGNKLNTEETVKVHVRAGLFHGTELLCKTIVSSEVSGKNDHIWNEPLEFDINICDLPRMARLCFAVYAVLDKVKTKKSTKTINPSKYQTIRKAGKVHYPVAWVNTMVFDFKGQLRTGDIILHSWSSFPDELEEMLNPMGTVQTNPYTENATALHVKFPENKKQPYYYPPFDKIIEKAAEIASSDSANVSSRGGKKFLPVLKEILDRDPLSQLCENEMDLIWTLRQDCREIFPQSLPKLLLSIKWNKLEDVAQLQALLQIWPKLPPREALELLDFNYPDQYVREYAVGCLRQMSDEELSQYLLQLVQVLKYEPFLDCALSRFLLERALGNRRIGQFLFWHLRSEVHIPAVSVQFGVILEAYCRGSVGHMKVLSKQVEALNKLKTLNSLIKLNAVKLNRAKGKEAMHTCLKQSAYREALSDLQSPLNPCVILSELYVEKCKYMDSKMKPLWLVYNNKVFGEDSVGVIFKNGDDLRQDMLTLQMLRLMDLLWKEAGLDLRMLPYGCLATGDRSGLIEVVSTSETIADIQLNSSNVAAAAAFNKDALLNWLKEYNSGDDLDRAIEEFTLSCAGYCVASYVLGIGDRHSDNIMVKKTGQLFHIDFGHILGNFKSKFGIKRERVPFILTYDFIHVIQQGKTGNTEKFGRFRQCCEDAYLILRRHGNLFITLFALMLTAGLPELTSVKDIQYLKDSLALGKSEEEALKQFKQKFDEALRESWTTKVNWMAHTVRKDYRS
T3 sequence (P27986 whole entry partner, species assumed): as the sequence (P27986 whole entry partner, species assumed) above

On to `CN(Cc1nc2c(N3CCOCC3)nc(-c3cnc(N)nc3)nc2n1C)c1ncc(C(=O)NO)cn1` [CLJ-11, 2-(((2-(2-aminopyrimidine-5-yl)-9-methyl-6-morpholine-9H-purine-8-yl))methyl(methyl)amino)-N-hydroxyl pyrimidine-5-formamide], for which the IC50 in experiment [1] is 10 to 100 nM; at PI3Kα (setting [3]), less than 100 nM; on PI3Kα (setting [4]), 1 to 100 nM; at PI3Kα (read-out: inhibition value IC50 to the activity of PI3Kα), less than 100 nM; in experiment [2] (setting [5]), 10 to 100 nM; against HDAC10, 1 to 100 nM. The IC50 against PI3Kβ (Table 1, graded) was 100 to 1000 nM; against PI3Kβ (Table 4, graded), 1 to 100 nM.

With `Cc1[nH]c2ccccc2c1CCNCc1ccc(/C=C/C(=O)NO)cc1` [LBH589, panobinostat, reference compound], the IC50 in experiment [1] is 1 to 10 nM; on PI3Kα (setting [4]), more than 10000 nM; in experiment [2] (setting [5]) it was 0.1 to 10 nM; against PI3Kβ (Table 4, graded), more than 10000 nM.

Regarding `CN(Cc1nc2c(N3CCOCC3)nc(-c3ccc(N)cc3)nc2n1C)c1ncc(C(=O)NO)cn1` [CLJ-44], the IC50 in experiment [1] is 1 to 10 nM; on PI3Kα (setting [3]) it was 1000 to 10000 nM; on PI3Kα (setting [4]) it was 1000 to 10000 nM; in experiment [2] (setting [5]) it was 10 to 100 nM; against HDAC10, 1 to 100 nM; on PI3Kβ (Table 4, graded), more than 10000 nM.

Turning to `COc1ccc(-c2nc(N3CCOCC3)c3nc(CN(C)c4ncc(C(=O)NO)cn4)n(C)c3n2)cn1` [CLJ-1, 2-(((2-(6-methoxypyridine-3-yl)-9-methyl-6-morpholine-9H-purine-8-yl))methyl(methyl)amino)-N-hydroxyl pyrimidine-5-formamide], the IC50 in experiment [1] lay within 1 to 10 nM; at PI3Kα (setting [3]), 1000 to 10000 nM; on PI3Kα (setting [4]) it was 1000 to 10000 nM; in experiment [2] (setting [5]), 10 to 100 nM; on HDAC10 it was 1 to 100 nM; against PI3Kβ (Table 1, graded), 1000 to 10000 nM. This compound also yielded an IC50 at PI3Kβ (Table 4, graded) of 1000 to 10000 nM.

Take `COc1ccc(-c2nc(N3CCOCC3)c3nc(CN(C)c4ncc(C(=O)NO)cn4)n(C)c3n2)cc1` [CLJ-29, 2-(((2-(4-methoxyphenyl)-9-methyl-6-morpholine-9H-purine-8-yl))methyl(methyl)amino)-N-hydroxyl pyrimidine-5-formamide]: the IC50 in experiment [1] was 0.1 to 1 nM; at PI3Kα (setting [3]) it was more than 10000 nM; on PI3Kα (setting [4]), more than 10000 nM; in experiment [2] (setting [5]), 0.1 to 10 nM; in experiment [2] (read-out: IC50 to proliferation of hct116 cells), 0.1 to 10 nM; against HDAC10 it was 1 to 100 nM. At PI3Kβ (Table 4, graded), this compound yielded an IC50 of more than 10000 nM.
